# Experiments:
# HEK293sieSTAT3(wt) [1] = assay: drug sensitivity score (DSS), viability CellTiter-Glo (DSS (dimensionless)); higher = more growth inhibition; extreme values may be limits of the assay; conditions: 72 h; STAT3 variant: wild type
# Summary of the method: (§1)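 HEK293 cells with a STAT3-dependent luciferase reporter, overexpressing either wild-type or mutant STAT3, were dispensed (20 μl at 100,000 cells/ml) into 384-well plates holding compounds acoustically pre-plated at 5 concentrations in 10-fold dilutions. The plates were kept for 72 hours at 37°C and 5% CO2, then CellTox Green fluorescence (485/520 nm) followed by CellTiter-Glo luminescence was read on a PHERAstar FS. Breeze was used to compute a drug sensitivity score from the dose-response curve area after normalisation to negative and positive control wells, and each value comes from one representative of two experiments.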
# HEK293sieSTAT3(Y640F) [2] = assay: as above; conditions: 72 h; STAT3 variant: Y640F (constitutively active)
# Summary of the method: as §1
# HEK293sieSTAT3(wt) [3] = assay: drug sensitivity score (DSS), cytotoxicity CellTox Green (DSS (dimensionless)); higher = more cytotoxic; extreme values may be limits of the assay; conditions: 72 h; STAT3 variant: wild type
# Summary of the method: as §1
# HEK293sieSTAT3(Y640F) [4] = assay: as above; conditions: 72 h; STAT3 variant: Y640F (constitutively active)
# Summary of the method: as §1
SMILES,drug sensitivity score (HEK293sieSTAT3(wt) [1]),drug sensitivity score (HEK293sieSTAT3(Y640F) [2]),drug sensitivity score (HEK293sieSTAT3(wt) [3]),drug sensitivity score (HEK293sieSTAT3(Y640F) [4])
Cc1c(N)nc([C@H](CC(N)=O)NC[C@H](N)C(N)=O)nc1C(=O)N[C@H](C(=O)N[C@H](C)[C@@H](O)[C@H](C)C(=O)N[C@H](C(=O)NCCc1nc(-c2nc(C(=O)NCCC[S+](C)C)cs2)cs1)[C@@H](C)O)[C@@H](OC1OC(CO)C(O)C(O)C1OC1OC(CO)C(O)C(OC(N)=O)C1O)c1cnc[nH]1 (stereo partly drawn) [Bleomycin] (top concentration tested 10000 nM),18.8,20.1,5.92,4.25
CC(C)C[C@H](NC(=O)[C@H](Cc1ccccc1)NC(=O)c1cnccn1)B(O)O [Bortezomib] (top concentration tested 1000 nM),32.5,29.8,31.7,30.6
COc1cc(Nc2c(C#N)cnc3cc(OCCCN4CCN(C)CC4)c(OC)cc23)c(Cl)cc1Cl [Bosutinib] (top concentration tested 10000 nM),8.54,7.76,7.02,7.59
COc1cc(N2CCC(N3CCN(C)CC3)CC2)ccc1Nc1ncc(Cl)c(Nc2ccccc2P(C)(C)=O)n1 [Brigatinib] (top concentration tested 2500 nM),8.02,7.58,1.71,0.69
Cc1cc2c(F)c(Oc3ncnn4cc(OC[C@@H](C)O)c(C)c34)ccc2[nH]1 [Brivanib] (top concentration tested 1000 nM),0,0.26,0,0
CCC/C=C/C=C/C(=O)O[C@H]1/C(=C/C(=O)OC)C[C@H]2C[C@H]([C@@H](C)O)OC(=O)C[C@H](O)C[C@@H]3C[C@H](OC(C)=O)C(C)(C)[C@](O)(C[C@@H]4C/C(=C/C(=O)OC)C[C@H](/C=C/C(C)(C)[C@]1(O)O2)O4)O3 [Bryostatin 1] (top concentration tested 100 nM),0.13,0,0.86,0.65
Nc1cc(C(F)(F)F)c(-c2cc(N3CCOCC3)nc(N3CCOCC3)n2)cn1 [Buparlisib] (top concentration tested 10000 nM),12.3,10.5,4,0.73
CS(=O)(=O)OCCCCOS(C)(=O)=O [Busulfan] (top concentration tested 100000 nM),4.87,0.42,1.26,0
O=C(O)CCCCC(CCSCc1ccccc1)SCc1ccccc1 (stereo not drawn) [CPI-613] (top concentration tested 10000 nM),2.62,0.32,0.8,0
C#Cc1cccc(Nc2ncnc3cc(OC)c(OCCCCCCC(=O)NO)cc23)c1 [CUDC-101] (top concentration tested 10000 nM),9.59,16.1,3.02,7.69
CN(C)c1cc2c(cc1Sc1nc3c(N)nccc3n1CCNCC(C)(C)C)OCO2 [CUDC-305] (top concentration tested 10000 nM),24.6,20,17.6,7.26
COc1ccc(-c2nc(N3CCOCC3)c3sc(CN(C)c4ncc(C(=O)NO)cn4)cc3n2)cn1 [CUDC-907] (top concentration tested 10000 nM),37.1,36.8,30.6,19.1
Cc1nc(N)sc1-c1ccnc(Nc2ccc(N3CCOCC3)cc2)n1 [CYC-116] (top concentration tested 10000 nM),9.72,8.51,0.48,0
CO[C@H]1C(=O)[C@]2(C)[C@@H](OC)C[C@H]3OC[C@@]3(OC(C)=O)[C@H]2[C@H](OC(=O)c2ccccc2)[C@]2(O)C[C@H](OC(=O)[C@H](O)[C@@H](NC(=O)OC(C)(C)C)c3ccccc3)C(C)=C1C2(C)C [Cabazitaxel] (top concentration tested 1000 nM),28.6,26.2,16.3,4.14
COc1cc2nccc(Oc3ccc(NC(=O)C4(C(=O)Nc5ccc(F)cc5)CC4)cc3)c2cc1OC [Cabozantinib] (top concentration tested 1000 nM),1.9,0.13,0,0
CC[C@@]1(O)C(=O)OCc2c1cc1n(c2=O)Cc2cc3ccccc3nc2-1 [Camptothecin] (top concentration tested 5000 nM),29.1,28.5,15.8,9.78
C=CC(=O)Nc1cc2c(Nc3ccc(F)c(Cl)c3)ncnc2cc1OCCCN1CCOCC1 [Canertinib] (top concentration tested 10000 nM),8.37,6.3,7.96,6.41
CCCCCOC(=O)Nc1nc(=O)n([C@@H]2O[C@H](C)[C@@H](O)[C@H]2O)cc1F [Capecitabine] (top concentration tested 10000 nM),0,0,0,0
O=C(O)C1(C(=O)O)CCC1.[NH2-].[NH2-].[Pt+2] [Carboplatin] (top concentration tested 100000 nM),10.6,9.56,4.89,1.37
CC(C)C[C@H](NC(=O)[C@H](CCc1ccccc1)NC(=O)CN1CCOCC1)C(=O)N[C@@H](Cc1ccccc1)C(=O)N[C@@H](CC(C)C)C(=O)[C@@]1(C)CO1 [Carfilzomib] (top concentration tested 1000 nM),32.8,31.2,31.9,26.5
O=NN(CCCl)C(=O)NCCCl [Carmustine] (top concentration tested 10000 nM),1.45,3.24,0,0

SMILES,drug sensitivity score (HEK293sieSTAT3(wt) [1]),drug sensitivity score (HEK293sieSTAT3(Y640F) [2]),drug sensitivity score (HEK293sieSTAT3(wt) [3]),drug sensitivity score (HEK293sieSTAT3(Y640F) [4])
COc1cc2c(Oc3ccc4[nH]c(C)cc4c3F)ncnc2cc1OCCCN1CCCC1 [Cediranib] (top concentration tested 1000 nM),1.46,1.03,0.26,0
Cc1ccc(-c2cc(C(F)(F)F)nn2-c2ccc(S(N)(=O)=O)cc2)cc1 [Celecoxib] (top concentration tested 10000 nM),4.14,0.58,0.02,0
CCS(=O)(=O)N1CCN(c2ccc(Nc3ncc(C(N)=O)c(NC4CC4)n3)cc2)CC1 [Cerdulatinib] (top concentration tested 10000 nM),9.09,6.32,7.28,0.63
Cc1cc(Nc2ncc(Cl)c(Nc3ccccc3S(=O)(=O)C(C)C)n2)c(OC(C)C)cc1C1CCNCC1 [Ceritinib] (top concentration tested 2500 nM),1.05,0.86,0.89,0
O=C(O)CCCc1ccc(N(CCCl)CCCl)cc1 [Chlorambucil] (top concentration tested 10000 nM),0.99,1.45,0,0
CCN(CC)CCCC(C)Nc1ccnc2cc(Cl)ccc12 (stereo not drawn) [Chloroquine] (top concentration tested 100000 nM),13,11,15.8,8.17
CC(C)[C@H]1C(=O)N[C@@H](CCCNC(=N)N)C(=O)NCC(=O)N[C@@H](CC(=O)O)C(=O)N[C@H](Cc2ccccc2)C(=O)N1C [Cilengitide] (top concentration tested 10000 nM),0,0,0,0
N.N.[Cl][Pt][Cl] [Cisplatin] (top concentration tested 100000 nM),18.9,19.6,6.89,5.83
Nc1nc(Cl)nc2c1ncn2[C@H]1C[C@H](O)[C@@H](CO)O1 [Cladribine] (top concentration tested 1000 nM),6.32,1.45,0.33,0
Nc1nc(Cl)nc2c1ncn2[C@@H]1O[C@H](CO)[C@@H](O)[C@@H]1F [Clofarabine] (top concentration tested 10000 nM),20.3,18.6,7.13,3.51
CCN(CC)CCOc1ccc(C(=C(Cl)c2ccccc2)c2ccccc2)cc1 [Clomifene] (top concentration tested 10000 nM),7.15,5.14,7.9,6.99
O=C(c1ccc(F)c(F)c1Nc1ccc(I)cc1F)N1CC(O)([C@@H]2CCCCN2)C1 [Cobimetinib] (top concentration tested 1000 nM),3.78,3.13,0,0
COc1c(OCCCN2CCOCC2)ccc2c1N=C(NC(=O)c1cnc(N)nc1)N1CCN=C21 [Copanlisib] (top concentration tested 1000 nM),18.3,15.5,0.34,0
CC1(COc2ccc3c(c2)ncn3-c2ccc3cccc(N4CCC(N)CC4)c3n2)COC1 [Crenolanib] (top concentration tested 10000 nM),11.9,9.27,11,8.74
C[C@@H](Oc1cc(-c2cnn(C3CCNCC3)c2)cnc1N)c1c(Cl)ccc(F)c1Cl [Crizotinib] (top concentration tested 1000 nM),1.97,1.05,5.34,0.46
O=P1(N(CCCl)CCCl)NCCCO1 (stereo not drawn) [Cyclophosphamide] (top concentration tested 40000 nM),0,0,0,0
Nc1ccn([C@@H]2O[C@H](CO)[C@@H](O)[C@@H]2O)c(=O)n1 [Cytarabine] (top concentration tested 10000 nM),13.3,8.82,1.75,0.18
CC(C)(C)c1nc(-c2cccc(NS(=O)(=O)c3c(F)cccc3F)c2F)c(-c2ccnc(N)n2)s1 [Dabrafenib] (top concentration tested 2500 nM),0,0,0,0
CN(C)/N=N/c1[nH]cnc1C(N)=O [Dacarbazine] (top concentration tested 10000 nM),2.09,0.02,0,0
COc1cc2ncnc(Nc3ccc(F)c(Cl)c3)c2cc1NC(=O)/C=C/CN1CCCCC1 [Dacomitinib] (top concentration tested 1000 nM),5.47,1.76,0,0
Cc1c2oc3c(C)ccc(C(=O)N[C@@H]4C(=O)N[C@H](C(C)C)C(=O)N5CCC[C@H]5C(=O)N(C)CC(=O)N(C)[C@@H](C(C)C)C(=O)O[C@@H]4C)c3nc-2c(C(=O)N[C@@H]2C(=O)N[C@H](C(C)C)C(=O)N3CCC[C@H]3C(=O)N(C)CC(=O)N(C)[C@@H](C(C)C)C(=O)O[C@@H]2C)c(N)c1=O [Dactinomycin] (top concentration tested 1000 nM),35.4,32.5,0,0
